Measured values reported in article PMC2990587, “Central nervous system penetration and enhancement of temozolomide activity in childhood medulloblastoma models by poly(ADP-ribose) polymerase inhibitor AG-014699” (British Journal of Cancer, 2010).
“Also recorded” adds a separate entry of the source.

Key:
D283Med xenografts = assay: Tumour growth inhibition in vivo, D283Med xenografts; set-up: species or system mouse; conditions: for Complete regressions: mice with regression/group
Excerpt: (§1) All of the in vivo experiments were reviewed and approved by the relevant institutional animal welfare committees, and performed according to national law. Female athymic nude mice (CD1 nu/nu; Charles River, Margate, UK) used for anti-tumour studies were maintained and handled in isolators under specific pathogen-free conditions. […], […] and […] (1 × 10^7 exponentially growing cells per mouse, harvested and implanted in growth media) xenografts were established by sub-cutaneous implantation into CD-1 nude mice. […] Treatment was initiated when sufficient number of mice had established tumours to allow randomisation into treatment groups: day 17 for […], day 26 for […] and day 32 for […]. […] For drug combinations, AG-014699 was administered immediately after administering temozolomide. […] Tumour growth delay (TGD) is defined as the time to RTV4 in drug-treated mice compared with the time to RTV4 in control (vehicle alone) mice. Median tumour volume is shown, rather than the mean, as this is generally accepted as the most statistically reliable representation of the average growth rate of tumours in a small group of mice, if a normal distribution of tumour volumes cannot be assumed. Tumour growth delay was calculated as: median time to RTV4 in treated group-median time to RTV4 in control group.

D283Med cells = assay: XTT growth inhibition, D283Med; type: cell-based, human
Method: (§2) Cell growth inhibition was estimated in exponentially growing D425Med, D283Med and D384Med cells in 96-well plates. Seeding densities of 1 × 10^3, 3 × 10^3 and 3 × 10^3 cells, respectively, ensured exponential growth for the duration of the experiment. At 24 h (D384Med) or 48 h (D283Med and D425Med) after seeding, cells were exposed to varying concentrations of temozolomide, as described in the Results, in the presence or absence of 0.4 μM AG-014699, a concentration previously shown to enhance temozolomide cytotoxicity in adult tumour cell lines ([Thomas et al, 2007]). After 3 days (D425Med and D384Med) or 5 days (D283Med) of culture (equivalent to approximately three cell divisions), the cell viability was quantified using an XTT cell proliferation kit assay (Roche, Mannheim, Germany), according to the manufacturer's instructions. Cell growth was expressed as a percentage in relation to DMSO or 0.4 μM AG-014699-alone controls. The concentration of temozolomide, alone or in combination with AG-014699, that inhibited growth by 50% (GI50) was calculated from computer-generated curves (GraphPad Software, San Diego, CA, USA). The potentiation factor50 (PF50) is defined as the ratio of […]. All data were from at least three independent experiments.

[1] = Toxicity (body weight loss) in tumour-bearing mice; type: in vivo, mouse; conditions: daily x5; TMZ 68 mg kg−1 p.o., AG-014699 1 mg kg−1 i.p.
Method: CD-1 nude mice bearing palpable, established subcutaneous D425Med, D283Med and D384Med xenografts were treated with normal saline (control animals), temozolomide (68 mg kg^−1 per os (p.o.)) or AG-014699 (1 mg kg^−1 i.p.) alone or in combination, daily for 5 days (five mice per group). For drug combinations, AG-014699 was administered immediately after administering temozolomide. Tumour volumes, determined from two-dimensional calliper measurements and the equation a^2 × b/2 (where a is the […] of the tumour), were monitored for the experimental period (up to 100 days), and are presented for each group of mice as median relative tumour volume (RTV) values. Relative tumour volume 1 is the tumour volume on the initial day of treatment (day 0), and RTV4 is the tumour volume four times that on the initial day of treatment. Tumour growth delay (TGD) is defined as the time to RTV4 in drug-treated mice compared with the time to RTV4 in control (vehicle alone) mice. Median tumour volume is shown, rather than the mean, as this is generally accepted as the most statistically reliable representation of the average growth rate of tumours in a small group of mice, if a normal distribution of tumour volumes cannot be assumed. Tumour growth delay was calculated as: median time to RTV4 in treated group−median time to RTV4 in control group. Percentage enhancement was calculated as 100 × (TGD TMZ+AG-014699/TGD TMZ alone)−100 ([Calabrese et al, 2004]).

D384Med cells = assay: XTT growth inhibition, D384Med; type: cell-based, human; conditions: Homo sapiens, D384 Med, 72 h; D384Med; temozolomide alone; XTT, 3 days
Method: as §2

D384Med xenografts = assay: Tumour growth inhibition in vivo, D384Med xenografts; set-up: species or system mouse; conditions: for Complete regressions: mice with regression/group, transient
Excerpt: as §1

D425Med xenografts = assay: Tumour growth inhibition in vivo, D425Med xenografts; set-up: species or system mouse
Excerpt: as §1

D425Med cells = assay: XTT growth inhibition, D425Med; type: cell-based, human; conditions: for GI50: D425Med, temozolomide alone, XTT, 3 days
Method: as §2

[2] = set-up: method as in Thomas et al, 2007; conditions: ref Thomas et al, 2007; cited from earlier work
[3] = AG-014447 distribution in plasma, brain and D283Med xenograft of tumour-bearing mice (LC/MS/MS); type: in vivo, mouse; conditions: for AUC in tumour: D283Med xenograft
Method: One or four daily doses of PARP inhibitor AG-014699 (1 mg kg^−1 intraperitoneally (i.p.)) were given to CD-1 nude mice bearing established D283Med xenografts. At 0.5, 2, 6 and 24 h after the initial or fourth daily dose of AG-014699, three animals per time point were bled by cardiac puncture under general anaesthesia, and then killed. Plasma was separated from the blood samples using standard methods and stored at −80°C. The brains and tumours were removed, snap frozen in liquid nitrogen and stored at −80°C before analysis. Blood, tumour and brain tissue were removed from three untreated control animals and processed in the same way.
AG-014699 is the phosphate salt of AG-014447 and rapidly liberates the parent drug following injection. The concentration of AG-014447 was determined in plasma and tissue homogenates (1 : 4 (w v^−1) in PBS) of brain and tumour after protein precipitation with acetonitrile by liquid chromatography/mass spectrometry/mass spectrometry using a turbo ion spray interface and multiple reaction monitoring in the positive ion mode (API 4000; Applied Biosystems, Warrington, Cheshire, UK) and a deuterated internal standard as described previously ([Plummer et al, 2008]). The lower limit of quantitation was 1 ng ml^−1. Plasma pharmacokinetics of AG-014447 were analysed using a non-compartmental approach in WinNonlin version 5.2.

In the case of `Cn1nnc2c(C(N)=O)ncn2c1=O` [temozolomide], the “Median nadir body weight (% starting weight)” value (D283Med xenografts; D283Med-bearing mice, daily x5, TMZ 68 mg kg−1 p.o., AG-014699 1 mg kg−1 i.p.) is reported as 94 % starting weight, the “Median time to RTV4” value (D283Med xenografts; D283Med, daily x5, TMZ 68 mg kg−1 p.o., AG-014699 1 mg kg−1 i.p.) is reported as 9 days and the Complete regressions (D283Med xenografts; D283Med) is reported as “no regressions observed in any mice”. The Complete regressions (D283Med xenografts; D283Med, listed as TMZ) was 0/5, the Tumour growth delay (D283Med xenografts; D283Med, versus control time to RTV4) was 2 days and the “Relative sensitivity to temozolomide (times less sensitive)” value (D283Med cells; D283Med compared with D384Med) was “nearly four times less sensitive”. The “Relative sensitivity to temozolomide (times less sensitive)” value (D283Med cells; D283Med compared with D425Med) was ~100 times, the GI50 (D283Med cells; Homo sapiens, D283 Med, 120 h, D283Med, temozolomide alone, XTT, 5 days) was 807 ± 239 µM and the Body weight loss [1] was 5±4%. The GI50 (D384Med cells) was 220 ± 42 µM, the “Median nadir body weight (% starting weight)” value (D384Med xenografts; D384Med-bearing mice, daily x5, TMZ 68 mg kg−1 p.o., AG-014699 1 mg kg−1 i.p.) was 97 % starting weight and the “Median time to RTV4” value (D384Med xenografts; D384Med, daily x5, TMZ 68 mg kg−1 p.o., AG-014699 1 mg kg−1 i.p.) was 44.5 days. The Complete regressions (D384Med xenografts; D384Med) was “one transient complete response”, the Complete regressions (D384Med xenografts; D384Med, listed as TMZ) was 1/5 and the Tumour growth delay (D384Med xenografts; D384Med, versus control time to RTV4) was 28.5 days. For the same compound, the “Median nadir body weight (% starting weight)” value (D425Med xenografts; D425Med-bearing mice, daily x5, TMZ 68 mg kg−1 p.o., AG-014699 1 mg kg−1 i.p.) was 96 % starting weight, the “Complete tumour regressions (including not sustained)” value (D425Med xenografts; D425Med, daily x5) was “complete tumour regressions seen in all mice; also recorded: all mice showing complete tumour regressions” and the “Median time to RTV4” value (D425Med xenografts; D425Med, daily x5, TMZ 68 mg kg−1 p.o., AG-014699 1 mg kg−1 i.p.) was >100 days. The Complete regressions (D425Med xenografts; D425Med, mice with regression/group, sustained for 100 days) was “two out of five”, the Tumour growth delay (D425Med xenografts; D425Med, versus control time to RTV4) was >81 days and the “Relative sensitivity to temozolomide (times more sensitive)” value (D425Med cells; D425Med compared with D384Med, in culture) was ~25 times. The GI50 (D425Med cells) was 9.3 ± 7.5 µM and the GI50 (D425Med cells; Homo sapiens, D425 Med, 72 h) was 9 µM.

For `CNCc1ccc(-c2[nH]c3cc(F)cc4c3c2CCNC4=O)cc1` [AG-014447], the “c log D” value [2] is given as 0.7, the pKa [2] is given as 9.6 and the “Levels in the brain relative to plasma” value ([3]; 6 h after fourth daily dose 1 mg kg−1 i.p.) is given as “only marginally greater than plasma levels”. For the same compound, the “Brain level relative to plasma level” value ([3]; 24 h after single dose 1 mg kg−1 i.p.) was “up to 10 fold”, the AUC in tumour ([3]; day 1, 1 mg kg−1 i.p.) was 582.0 µmol·min/L and the AUC in tumour ([3]; day 4, 1 mg kg−1 i.p. daily) was 509.6 µmol·min/L. It also gave an AUC in brain ([3]; day 1, 1 mg kg−1 i.p.) of 37.0 µmol·min/L, an AUC in plasma ([3]; day 1, 1 mg kg−1 i.p.) of 26.4 µmol·min/L and a Plasma half-life ([3]; day 1, 1 mg kg−1 i.p.) of 4.98 h. It also gave an AUC in brain ([3]; day 4, 1 mg kg−1 i.p. daily) of 14.7 µmol·min/L, an AUC in plasma ([3]; day 4, 1 mg kg−1 i.p. daily) of 21.9 µmol·min/L and a Plasma half-life ([3]; day 4, 1 mg kg−1 i.p. daily) of 4.23 h. The “Plasma level of AG-014447 at 24 h” value ([3]; first dose AG-014699 1 mg kg−1 i.p., LLOQ 1 ng ml−1) was “below the level of quantitation”.
